Test results from patent publication US10329324B2 (viDA Therapeutics Inc., priority 2013, dated 2019).
Counter-ions that a name gives are not always drawn. Like-named read-outs stand apart in the source and are kept apart here. One block for each compound: values may come before it.

Experiments:
human Granzyme B (hGzmB) = target: T1, human Granzyme B (hGzmB) (Homo sapiens, UniProt P10144); test: Human Granzyme B enzymatic inhibition assay (fluorogenic, kinetic); format: biochemical; conditions: activity codes, Table 7; read-out: IC50 Activity Range
T1 construct: purchased Froelich Lab, Northshore University Health Systems Research Institute, Evanston, Ill., USA
T1 sequence (P10144 21-247): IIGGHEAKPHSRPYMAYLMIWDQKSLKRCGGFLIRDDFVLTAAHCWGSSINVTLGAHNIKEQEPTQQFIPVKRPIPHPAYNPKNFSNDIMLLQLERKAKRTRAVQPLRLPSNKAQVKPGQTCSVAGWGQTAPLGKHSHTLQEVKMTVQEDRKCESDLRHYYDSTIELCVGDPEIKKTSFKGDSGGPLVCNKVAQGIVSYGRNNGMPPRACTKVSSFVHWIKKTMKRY
In short: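 Human Granzyme B preincubated with compound for 30 min total (5 min shaking, 20 min bench, then reaction temperature). Fluorogenic substrate added and read kinetically, 25 cycles at 1-min intervals. Percent inhibition at one or two concentrations or 8–12-point 3-fold dose response from 20 uM, replicates, with IC50 by non-linear regression.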

[1] = Kinetic solubility determination in PBS; format: physicochemical; conditions: PBS 1X pH 7.4, 2.0% DMSO, 24 hour incubation at ambient temperature; for solubility at 24 h: phosphate buffered saline (PBS 1×), 21 °C, pH 7.4, aqueous buffer, kinetic from dmso stock
Protocol: Kinetic solubility buffer (phosphate buffered saline (PBS, 1×) at pH 7.4) was prepared from PBS (10×) solution, (Fisher Scientific, Pittsburgh, Pa., USA, 10×), by adding PBS (50 mL, 10×) to approximately water (450 mL HPLC grade). The volume of the solution was then adjusted to 500 mL for a total dilution factor of 1:10 and a final PBS concentration of 1×. The pH of the final solution (PBS (1×)) was measured and found to be 7.4.
A DMSO stock solution (typically 10 mM or greater) was used for each compound to be tested. A final DMSO concentration of 2.0% and maximum theoretical compound concentration of typically 200 μM (or greater) was achieved by diluting an aliquot (6 μl) of each stock with kinetic solubility buffer (294 μl, PBS (1×) at pH 7.4) using a liquid handling system (Hamilton STARlet, Hamilton Robotics, Inc., Reno, Nev., USA) and incubated directly in a solubility filter plate (Millipore, Billerica, Mass., USA). Following 24 hour incubation at ambient temperature (20.5-21.7° C.), each sample was vacuum filtered. The filtrate was injected into the chemiluminescent nitrogen detector for quantification (Automated Discovery Workstation, Analiza, Inc., Cleveland, Ohio, USA). Each result was reported both in μM and μg/mL units. Three separate on-board performance indicating standards were assayed in triplicate with each test compound to ensure test results were within the acceptable range.
The equimolar nitrogen response of the detector was calibrated using standards which spanned the dynamic range of the instrument from 0.08 to 4500 μg/ml nitrogen. Each filtrate was quantified with respect to this calibration curve. Each calculated solubility value was corrected for background nitrogen present in the DMSO, and buffer used to prepare each sample. All reported values for samples containing adjacent nitrogen atoms in a ring structure were corrected for the expected non-equimolar response. Each calculated solubility result assumed that each sample was free of nitrogen containing impurities and was stable under the assay conditions. Analyses were performed at Analiza Inc. (Cleveland, Ohio, USA) by published methods (Bhattachar, S. N., et al, J. Pharma. BioMed Anal. 41:152-7 2006).

[2] = read-out: Solubility in aqueous PBS Buffer (1X, pH 7.4)
[3] = read-out: Solubility in aqueous PBS Buffer (1X, pH 7.4), ug/mL

SMILES: CC[C@H](C)[C@H](NC(=O)C(C)(C)CC(=O)O)C(=O)NCC(=O)N1c2ccccc2C[C@H]1C(=O)NCc1nn[nH]n1 [Example A56, 3,3-Dimethyl-3-{[(1S,2S)-2-Methyl-1-({2-Oxo-2-[(2S)-2-[(2H-1,2,3,4-Tetrazol-5-Ylmethyl)Carbamoyl]-2,3-Dihydro-1H-Indol-1-Yl]Ethyl}Carbamoyl)Butyl]Carbamoyl}Propanoic Acid]
IC50 (human Granzyme B (hGzmB)): < 100 nM
solubility at 24 h [1, 2]: > 750 µM
solubility at 24 h [1, 3]: > 407 µg/mL

SMILES: CC[C@H](C)[C@H](NC(=O)CC1(CC(=O)O)CCCC1)C(=O)NCC(=O)N1c2ccccc2C[C@H]1C(=O)NCc1nn[nH]n1 [Example A19, 2-[1-({[(1S,2S)-2-Methyl-1-({2-Oxo-2-[(2S)-2-[(2H-1,2,3,4-Tetrazol-5-Ylmethyl)Carbamoyl]-2,3-Dihydro-1H-Indol-1-Yl]Ethyl}Carbamoyl)Butyl]Carbamoyl}Methyl)Cyclopentyl]Acetic Acid]
IC50 (human Granzyme B (hGzmB)): < 100 nM
solubility at 24 h [1, 2]: 672 µM
solubility at 24 h [1, 3]: 391 µg/mL

SMILES: CC[C@H](C)[C@H](NC(=O)CC(C)(C)CC(=O)O)C(=O)NCC(=O)N1c2ccccc2C[C@H]1C(=O)NCc1nn[nH]n1 [Example A18, 3,3-Dimethyl-4-{[(1S,2S)-2-Methyl-1-({2-Oxo-2-[(2S)-2-[(2H-1,2,3,4-Tetrazol-5-Ylmethyl)Carbamoyl]-2,3-Dihydro-1H-Indol-1-Yl]Ethyl}Carbamoyl)Butyl]Carbamoyl}Butanoic Acid]
IC50 (human Granzyme B (hGzmB)): < 100 nM
solubility at 24 h [1, 2]: 679 µM
solubility at 24 h [1, 3]: 447 µg/mL

SMILES: CC[C@H](C)[C@H](NC(=O)C(CCC(=O)O)c1ccccc1)C(=O)NCC(=O)N1c2ccccc2C[C@H]1C(=O)NCc1nn[nH]n1 (single isomer, unassigned) [Example A54-1]
IC50 (human Granzyme B (hGzmB)): < 100 nM
solubility at 24 h [1, 2]: 451 µM
solubility at 24 h [1, 3]: 273 µg/mL

SMILES: CC[C@H](C)[C@H](NC(=O)Cc1ccncc1)C(=O)NCC(=O)N1c2ccccc2C[C@H]1C(=O)NCc1nn[nH]n1 [Example A2, (2S)-1-{2-[(2S,3S)-3-Methyl-2-[2-(Pyridin-4-Yl)Acetamido]Pentanamido]Acetyl}-N-(2H-1,2,3,4-Tetrazol-5-Ylmethyl)-2,3-Dihydro-1H-Indole-2-Carboxamide]
IC50 (human Granzyme B (hGzmB)): 100 to 1000 nM
solubility at 24 h [1, 2]: > 150 µM
solubility at 24 h [1, 3]: > 80 µg/mL

SMILES: CC[C@H](C)[C@H](NC(=O)C1CC1C(=O)O)C(=O)NCC(=O)N1c2ccccc2C[C@H]1C(=O)NCc1nn[nH]n1 (single isomer, unassigned) [Example A26-2]
IC50 (human Granzyme B (hGzmB)): < 100 nM
Solubility in aqueous PBS Buffer (1X, pH 7.4), uM [1]: 685 uM
Solubility in aqueous PBS Buffer (1X, pH 7.4), ug/mL [1]: 361 ug/mL

SMILES: O=C(O)CCC(=O)N[C@H](C(=O)NCC(=O)N1c2ccccc2C[C@H]1C(=O)NCc1nn[nH]n1)C1CCCC1 [Example A45, 3-{[(S)-Cyclopentyl({2-Oxo-2-[(2S)-2-[(2H-1,2,3,4-Tetrazol-5-Ylmethyl)Carbamoyl]-2,3-Dihydro-1H-Indol-1-Yl]Ethyl}Carbamoyl)Methyl]Carbamoyl}Propanoic Acid]
IC50 (human Granzyme B (hGzmB)): < 100 nM
solubility at 24 h [1, 2]: 682 µM
solubility at 24 h [1, 3]: 359 µg/mL

SMILES: CC[C@H](C)[C@H](NC(=O)C1CCCCC1C(=O)O)C(=O)NCC(=O)N1c2ccccc2C[C@H]1C(=O)NCc1nn[nH]n1 (single isomer, unassigned) [Example A23-2]
IC50 (human Granzyme B (hGzmB)): < 100 nM
Solubility in aqueous PBS Buffer (1X, pH 7.4), uM [1]: 679 uM
Solubility in aqueous PBS Buffer (1X, pH 7.4), ug/mL [1]: 386 ug/mL

SMILES: O=C(Cc1ccccc1)N[C@H](C(=O)NCC(=O)N1c2ccccc2C[C@H]1C(=O)NCc1nn[nH]n1)C1CCCC1 [Example A12, (2S)-1-{2-[(2S)-2-Cyclopentyl-2-(2-Phenylacetamido)Acetamido]Acetyl}-N-(2H-1,2,3,4-Tetrazol-5-Ylmethyl)-2,3-Dihydro-1H-Indole-2-Carboxamide]
IC50 (human Granzyme B (hGzmB)): 100 to 1000 nM
solubility at 24 h [1, 2]: 594 µM
solubility at 24 h [1, 3]: 323 µg/mL

SMILES: CC[C@H](C)[C@H](NC(=O)C1CCCC1C(=O)O)C(=O)NCC(=O)N1c2ccccc2C[C@H]1C(=O)NCc1nn[nH]n1 (single isomer, unassigned) [Example A22-2]
IC50 (human Granzyme B (hGzmB)): < 100 nM
Solubility in aqueous PBS Buffer (1X, pH 7.4), uM [1]: >750 uM
Solubility in aqueous PBS Buffer (1X, pH 7.4), ug/mL [1]: >416 ug/mL

SMILES: CC[C@H](C)[C@H](NC(=O)CCCN)C(=O)NCC(=O)N1c2ccccc2C[C@H]1C(=O)NCc1nn[nH]n1 [Example A7, (2S)-1-{2-[(2S,3S)-2-(4-Aminobutanamido-3-Methylpentanamido]Acetyl}-N-(2H-1,2,3,4-Tetrazol-5-Ylmethyl)-2,3-Dihydro-1H-Indole-2-Carboxamide Hydrochloride]
IC50 (human Granzyme B (hGzmB)): 1000 to 10000 nM
solubility at 24 h [1, 2]: 124 µM
solubility at 24 h [1, 3]: 67 µg/mL

SMILES: CC[C@H](C)[C@H](NC(=O)C1CC=CCC1C(=O)O)C(=O)NCC(=O)N1c2ccccc2C[C@H]1C(=O)NCc1nn[nH]n1 (single isomer, unassigned) [Example A21-2]
IC50 (human Granzyme B (hGzmB)): < 100 nM
Solubility in aqueous PBS Buffer (1X, pH 7.4), uM [1]: >750 uM
Solubility in aqueous PBS Buffer (1X, pH 7.4), ug/mL [1]: >425 ug/mL

SMILES: CC[C@H](C)[C@H](NC(=O)CC(C)(C)C(=O)O)C(=O)NCC(=O)N1c2ccccc2C[C@H]1C(=O)NCc1nn[nH]n1 [Example A53, 2,2-Dimethyl-3-{[(1S,2S)-2-Methyl-1-({2-Oxo-2-[(2S)-2-[(2H-1,2,3,4-Tetrazol-5-Ylmethyl)Carbamoyl]-2,3-Dihydro-1H-Indol-1-Yl]Ethyl}Carbamoyl)Butyl]Carbamoyl}Propanoic Acid]
IC50 (human Granzyme B (hGzmB)): < 100 nM
solubility at 24 h [1, 2]: > 750 µM
solubility at 24 h [1, 3]: > 407 µg/mL

SMILES: CC(C)(C)OC[C@H](NC(=O)Cc1ccccc1)C(=O)NCC(=O)N1c2ccccc2C[C@H]1C(=O)NCc1nn[nH]n1 [Example C8, (2S)-1-{2-[(2S)-3-(Tert-Butoxy)-2-(2-Phenylacetamido)Propanamido]Acetyl}-N-(2H-1,2,3,4-Tetrazol-5-Ylmethyl)-2,3-Dihydro-1H-Indole-2-Carboxamide]
IC50 (human Granzyme B (hGzmB)): > 10000 nM

SMILES: CC[C@H](C)[C@H](NC(=O)C1CCCC1C(=O)O)C(=O)NCC(=O)N1c2ccccc2C[C@H]1C(=O)NCc1nn[nH]n1 (single isomer, unassigned) [Example A57-1]
IC50 (human Granzyme B (hGzmB)): < 100 nM

Further lines, results first:

IC50 (human Granzyme B (hGzmB)): 100 to 1000 nM
solubility at 24 h [1, 2]: > 750 µM
solubility at 24 h [1, 3]: > 438 µg/mL
SMILES: CC[C@H](C)[C@H](NC(=O)Cc1ccccc1)C(=O)NCC(=O)N1c2ccc(N)cc2C[C@H]1C(=O)NCc1nn[nH]n1 [Example C32, (2S)-5-Amino-1-{2-[(2S,3S)-3-Methyl-2-(2-Phenylacetamido)Pentanamido]Acetyl}-N-(2H-1,2,3,4-Tetrazol-5-Ylmethyl)-2,3-Dihydro-1H-Indole-2-Carboxamide Hydrochloride]

IC50 (human Granzyme B (hGzmB)): 100 to 1000 nM
solubility at 24 h [1, 2]: > 750 µM
solubility at 24 h [1, 3]: > 442 µg/mL
SMILES: CC[C@H](C)[C@H](NC(=O)Cc1ccccc1)C(=O)NCC(=O)N1c2cc(NC(C)=O)ccc2C[C@H]1C(=O)NCc1nn[nH]n1 [Example C27, (2S)-6-Acetamido-1-{2-[(2S,3S)-3-Methyl-2-(2-Phenylacetamido)Pentanamido]Acetyl}-N-(2H-1,2,3,4-Tetrazol-5-Ylmethyl)-2,3-Dihydro-1H-Indole-2-Carboxamide]

IC50 (human Granzyme B (hGzmB)): 100 to 1000 nM
solubility at 24 h [1, 2]: > 750 µM
solubility at 24 h [1, 3]: > 405 µg/mL
SMILES: O=C(O)CCC(=O)N[C@H](C(=O)NCC(=O)N1c2ccccc2C[C@H]1C(=O)NCc1nn[nH]n1)c1cccs1 [Example C24, 3-{[(R)-({2-Oxo-2-[(2S)-2-[(2H-1,2,3,4-Tetrazol-5-Ylmethyl)Carbamoyl]-2,3-Dihydro-1H-Indol-1-Yl]Ethyl}Carbamoyl)(Thiophen-2-Yl)Methyl]Carbamoyl}Propanoic Acid]

IC50 (human Granzyme B (hGzmB)): 1000 to 10000 nM
SMILES: CC[C@H](C)[C@H](NC(=O)Cc1ccccc1)C(=O)N[C@@H](CC(=O)O)C(=O)N1c2ccccc2C[C@H]1C(=O)NCc1nn[nH]n1 [Example C14]

IC50 (human Granzyme B (hGzmB)): 1000 to 10000 nM
SMILES: O=C(O)CCC(=O)N[C@H](C(=O)NCC(=O)N1c2ccccc2C[C@H]1C(=O)NCc1nn[nH]n1)c1ccsc1 [Example C23, 3-{[(S)-({2-Oxo-2-[(2S)-2-[(2H-1,2,3,4-Tetrazol-5-Ylmethyl)Carbamoyl]-2,3-Dihydro-1H-Indol-1-Yl]Ethyl}Carbamoyl)(Thiophen-3-Yl)Methyl]Carbamoyl}Propanoic Acid]
